Measurements published in patent US12661410B2, “Compounds for targeted degradation of RET” (C4 Therapeutics, Inc., priority 2020, dated 2026).
Numbering of substitutions follows the chain as printed. Read-outs that look alike come from different tables or passages of the source.

Columns and labels:
RET(KD: 658-1114 G810R) = molecular target: T1, RET(KD: 658-1114 G810R) (Homo sapiens, UniProt P07949, G810R); test: HiBiT-Degradation, RET G810R degradation assay (Nano-Glo HiBiT Lytic), 293T.165 cells; type: cell-based; conditions: for Emax / DC50: 6.0 hours
T1 construct: 658-1114; expressed in transfected cells; host or cells: 293T.165 (293T cells, generated in-house)
T1 sequence (P07949 658-1114 G810R): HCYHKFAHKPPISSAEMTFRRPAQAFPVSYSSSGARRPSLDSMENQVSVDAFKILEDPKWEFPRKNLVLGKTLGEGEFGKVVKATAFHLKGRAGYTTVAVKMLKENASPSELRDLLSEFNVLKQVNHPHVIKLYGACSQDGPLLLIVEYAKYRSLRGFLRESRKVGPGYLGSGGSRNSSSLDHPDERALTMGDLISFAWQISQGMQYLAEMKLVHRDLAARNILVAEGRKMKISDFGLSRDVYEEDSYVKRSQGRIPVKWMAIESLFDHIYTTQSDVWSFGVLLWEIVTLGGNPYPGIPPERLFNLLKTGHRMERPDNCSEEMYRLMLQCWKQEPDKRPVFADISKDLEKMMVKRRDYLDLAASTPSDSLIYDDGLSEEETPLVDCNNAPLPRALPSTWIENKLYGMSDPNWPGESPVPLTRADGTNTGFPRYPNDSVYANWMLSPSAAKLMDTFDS
Summary of the method: (§1)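 HEK293T lines expressing HiBiT-tagged RET kinase domain, wild-type (293T.144) or G810R (293T.165), treated 6 h in duplicate, 11-point half-log series from 10 μM top. Lytic HiBiT luminescence read; DC50 and Emax (% protein remaining) from dose-response curves.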

RET (658-1114) = molecular target: T2, RET (658-1114) (Homo sapiens, UniProt P07949); test: HiBiT-Degradation, RET wild-type degradation assay (Nano-Glo HiBiT Lytic), 293T.144 cells; type: cell-based; conditions: for DC50 / Emax: 6.0 hours
T2 construct: 658-1114; expressed in transfected cells; host or cells: 293T.144 (293T cells, generated in-house)
T2 sequence (P07949 658-1114): T1 sequence (P07949 658-1114 G810R) with R153G
Summary of the method: as §1

[1] = % remaining protein, read-out: 293T.165 RET(KD: 658-1114 G810R) 6.0 hours (Emax)
[2] = half-maximal degradation concentration, read-out: 293T.165 RET(KD: 658-1114 G810R) 6.0 hours (DC50)
[3] = HiBiT-Degradation, read-out: 293T.165 RET(KD: 658-1114 G810R) 6.0 hours (DC50)
[4] = HiBiT-Degradation, read-out: 293T.144 RET (658-1114) 6.0 hours (DC50)
[5] = HiBiT-Degradation, read-out: 293T.144 RET (658-1114) 6.0 hours (Emax)
[6] = % remaining protein, read-out: 293T.144 RET (658-1114) 6.0 hours (Emax)
[7] = half-maximal degradation concentration, read-out: 293T.144 RET (658-1114) 6.0 hours (DC50)

SMILES	Emax (RET(KD: 658-1114 G810R); [1])	DC50 (RET(KD: 658-1114 G810R); [2])	293T.165 RET(KD: 658-1114 G810R) 6.0 hours (Emax) (RET(KD: 658-1114 G810R); HiBiT-Degradation)	293T.165 RET(KD: 658-1114 G810R) 6.0 hours (IP) [nM] (RET(KD: 658-1114 G810R); HiBiT-Degradation)	DC50 (RET(KD: 658-1114 G810R); [3])	293T.144 RET (658-1114) 6.0 hours (IP) [nM] (RET (658-1114); HiBiT-Degradation)	DC50 (RET (658-1114); [4])	Emax (RET (658-1114); [5])	293T.165 RET(KD: 658-1114 G810R) 6.0 hours (IP) [nM] (RET(KD: 658-1114 G810R))	293T.144 RET (658-1114) 6.0 hours (IP) [nM] (RET (658-1114))	Emax (RET (658-1114); [6])	DC50 (RET (658-1114); [7])	HiBiT-Degradation 293T.165 RET(KD: 658-1114 G810R) 6.0 hours (IP) [nM] (RET(KD: 658-1114 G810R); RET G810R)	DC50 (RET(KD: 658-1114 G810R); RET G810R, read-out: HiBiT-Degradation 293T.165 RET(KD: 658-1114 G810R) 6.0 hours (DC50))	Emax (RET(KD: 658-1114 G810R); RET G810R, read-out: HiBiT-Degradation 293T.165 RET(KD: 658-1114 G810R) 6.0 hours (Emax))	HiBiT-Degradation 293T.144 RET (658-1114) 6.0 hours (IP) [nM] (RET (658-1114); RET wild-type)	DC50 (RET (658-1114); RET wild-type, read-out: HiBiT-Degradation 293T.144 RET (658-1114) 6.0 hours (DC50))	Emax (RET (658-1114); RET wild-type, read-out: HiBiT-Degradation 293T.144 RET (658-1114) 6.0 hours (Emax))
CC(C)(C)NC(=O)C1(C)CCN(c2ccc(-c3cc(-c4ccc(N5CCN(C(=O)CN6CCC(c7ccc(NC8CCC(=O)NC8=O)cc7F)CC6)CC5)cc4)cn4ncc(C#N)c34)cn2)CC1 (stereo not drawn) [Compound 25, N-(tert-butyl)-1-(5-(3-cyano-6-(4-(4-(2-(4-(4-((2,6-dioxopiperidin-3-yl)amino)-2-fluorophenyl)piperidin-1-yl)acetyl)piperazin-1-yl)phenyl)pyrazolo[1,5-a]pyridin-4-yl)pyridin-2-yl)-4-methylpiperidine-4-carboxamide]	< 50%	< 100 nM	+++ (<50% = +++)	++++ (< 50 nM = ++++)	< 100 nM	++++ (< 50 nM = ++++)	< 50 nM	< 30%	–	–	–	–	–	–	–	–	–	–
CC(=O)N1CCN(c2ccc(-c3cc(-c4cnn(C5CCN(C(=O)CN6CCC(c7ccc(NC8CCC(=O)NC8=O)cc7)CC6)CC5)c4)cn4ncc(C#N)c34)cn2)CC1 (stereo not drawn) [Compound 42, 4-[6-(4-acetylpiperazin-1-yl)-3-pyridyl]-6-[1-[1-[2-[4-[4-[(2,6-dioxo-3-piperidyl)amino]phenyl]-1-piperidyl]acetyl]-4-piperidyl]pyrazol-4-yl]pyrazolo[1,5-a]pyridine-3-carbonitrile]	< 50%	< 100 nM	+++ (<50% = +++)	++++ (< 50 nM = ++++)	< 100 nM	++++ (< 50 nM = ++++)	< 50 nM	< 30%	–	–	–	–	–	–	–	–	–	–
CCC1(C(=O)NC(C)C)CCN(c2ccc(-c3nc(-c4cnn(C5CCN(C(=O)CN6C7CCC6CC(c6ccc(NC8CCC(=O)NC8=O)cc6)C7)CC5)c4)cn4ncc(C#N)c34)cn2)CC1 (stereo not drawn) [Compound 9, 1-[5-[3-cyano-6-[1-[1-[2-[3-[4-[(2,6-dioxo-3-piperidyl)amino]phenyl]-8-azabicyclo[3.2.1]octan-8-yl]acetyl]-4-piperidyl]pyrazol-4-yl]pyrazolo[1,5-a]pyrazin-4-yl]-2-pyridyl]-4-ethyl-N-isopropyl-piperidine-4-carboxamide]	< 30%	< 100 nM	++++ (< 30% = ++++)	++++ (< 50 nM = ++++)	< 100 nM	++++ (< 50 nM = ++++)	< 50 nM	< 30%	–	–	–	–	–	–	–	–	–	–
CN(C)c1ccc(-c2cc(-c3cnn([C@H]4CC[C@@H](CCN5CCC(c6ccc(NC7CCC(=O)NC7=O)cc6)CC5)CC4)c3)cn3ncc(C#N)c23)cn1 (stereo partly drawn) [Compound 43, 4-[6-(dimethylamino)-3-pyridyl]-6-[1-[(1s,4s)-4-[2-[4-[4-[(2,6-dioxo-3-piperidyl)amino]phenyl]-1-piperidyl]ethyl]cyclohexyl]pyrazol-4-yl]pyrazolo[1,5-a]pyridine-3-carbonitrile]	< 50%	< 100 nM	+++ (<50% = +++)	++++ (< 50 nM = ++++)	< 100 nM	++++ (< 50 nM = ++++)	< 50 nM	< 30%	–	–	–	–	–	–	–	–	–	–

Further lines, results first:

Emax (RET(KD: 658-1114 G810R); [1])	DC50 (RET(KD: 658-1114 G810R); [2])	293T.165 RET(KD: 658-1114 G810R) 6.0 hours (Emax) (RET(KD: 658-1114 G810R); HiBiT-Degradation)	293T.165 RET(KD: 658-1114 G810R) 6.0 hours (IP) [nM] (RET(KD: 658-1114 G810R); HiBiT-Degradation)	DC50 (RET(KD: 658-1114 G810R); [3])	293T.144 RET (658-1114) 6.0 hours (IP) [nM] (RET (658-1114); HiBiT-Degradation)	DC50 (RET (658-1114); [4])	Emax (RET (658-1114); [5])	293T.165 RET(KD: 658-1114 G810R) 6.0 hours (IP) [nM] (RET(KD: 658-1114 G810R))	293T.144 RET (658-1114) 6.0 hours (IP) [nM] (RET (658-1114))	Emax (RET (658-1114); [6])	DC50 (RET (658-1114); [7])	HiBiT-Degradation 293T.165 RET(KD: 658-1114 G810R) 6.0 hours (IP) [nM] (RET(KD: 658-1114 G810R); RET G810R)	DC50 (RET(KD: 658-1114 G810R); RET G810R, read-out: HiBiT-Degradation 293T.165 RET(KD: 658-1114 G810R) 6.0 hours (DC50))	Emax (RET(KD: 658-1114 G810R); RET G810R, read-out: HiBiT-Degradation 293T.165 RET(KD: 658-1114 G810R) 6.0 hours (Emax))	HiBiT-Degradation 293T.144 RET (658-1114) 6.0 hours (IP) [nM] (RET (658-1114); RET wild-type)	DC50 (RET (658-1114); RET wild-type, read-out: HiBiT-Degradation 293T.144 RET (658-1114) 6.0 hours (DC50))	Emax (RET (658-1114); RET wild-type, read-out: HiBiT-Degradation 293T.144 RET (658-1114) 6.0 hours (Emax))	SMILES
< 50%	< 50 nM	+++ (<50% = +++)	++++ (< 50 nM = ++++)	< 50 nM	++++ (< 50 nM = ++++)	< 50 nM	< 30%	–	–	–	–	–	–	–	–	–	–	CCC1(C(=O)NC(C)C)CCN(c2ccc(-c3cc(-c4cnn(C5CCN(C(=O)CN6CCC(c7ccc(NC8CCC(=O)NC8=O)cc7F)CC6)CC5)c4)cn4ncc(C#N)c34)cc2)CC1 (stereo not drawn) [Compound 58, 1-[4-[3-cyano-6-[1-[1-[2-[4-[4-[(2,6-dioxo-3-piperidyl)amino]-2-fluoro-phenyl]-1-piperidyl]acetyl]-4-piperidyl]pyrazol-4-yl]pyrazolo[1,5-a]pyridin-4-yl]phenyl]-4-ethyl-N-isopropyl-piperidine-4-carboxamide]
< 50%	< 100 nM	–	–	–	–	–	–	++++ (<50 nM = ++++)	++++ (<50 nM = ++++)	< 30%	< 50 nM	–	–	–	–	–	–	N#Cc1cnn2cc(-c3ccc(C4CCN(C(=O)CC5(O)CCN(c6ccc(NC7CCC(=O)NC7=O)cc6F)CC5)CC4)cc3)nc(-c3ccc(N4CCN(C(=O)c5ccon5)CC4)nc3)c12 (stereo not drawn) [Compound 175, 6-[4-[1-[2-[1-[4-[(2,6-dioxo-3-piperidyl)amino]-2-fluoro-phenyl]-4-hydroxy-4-piperidyl]acetyl]-4-piperidyl]phenyl]-4-[6-[4-(isoxazole-3-carbonyl)piperazin-1-yl]-3-pyridyl]pyrazolo[1,5-a]pyrazine-3-carbonitrile]
< 50%	< 100 nM	–	–	–	–	–	–	+++ (<100 nM = +++)	++++ (<50 nM = ++++)	< 30%	< 50 nM	–	–	–	–	–	–	CCC1(C(=O)NC(C)C)CCN(c2ccc(-c3nc(-c4ccc(N5CCN(C(=O)CC6(O)CCN(c7ccc8c(N9CCC(=O)NC9=O)nn(C)c8c7)CC6)CC5)cc4)cn4ncc(C#N)c34)cn2)CC1 [Compound 173, 1-(5-(3-cyano-6-(4-(4-(2-(1-(3-(2,4-dioxotetrahydropyrimidin-1(2H)-yl)-1-methyl-1H-indazol-6-yl)-4-hydroxypiperidin-4-yl)acetyl)piperazin-1-yl)phenyl)pyrazolo[1,5-a]pyrazin-4-yl)pyridin-2-yl)-4-ethyl-N-isopropylpiperidine-4-carboxamide]
< 50%	< 100 nM	–	–	–	–	–	–	–	–	–	–	++++ (< 50 nM = ++++)	< 100 nM	< 50%	++++ (< 50 nM = ++++)	< 50 nM	< 30%	CCC1(C(=O)NC(C)C)CCN(c2ccc(-c3nc(-c4cnn(C5CCN(C(=O)CC6(O)CCN(c7ccc(NC8CCC(=O)NC8=O)cc7)CC6)CC5)c4)cn4ncc(C#N)c34)cn2)CC1 (stereo not drawn) [Compound 85, 1-[5-[3-cyano-6-[1-[1-[2-[1-[4-[(2,6-dioxo-3-piperidyl)amino]phenyl]-4-hydroxy-4-piperidyl]acetyl]-4-piperidyl]pyrazol-4-yl]pyrazolo[1,5-a]pyrazin-4-yl]-2-pyridyl]-4-ethyl-N-isopropyl-piperidine-4-carboxamide]
< 30%	< 50 nM	–	–	–	–	–	–	++++ (<50 nM = ++++)	++++ (<50 nM = ++++)	< 30%	< 50 nM	–	–	–	–	–	–	Cc1ccnc(C2CCN(c3ccc(-c4nc(-c5cnn(C6CCN(C(=O)CC7(O)CCN(c8ccc(NC9CCC(=O)NC9=O)cc8F)CC7)CC6)c5)cn5ncc(C#N)c45)cn3)CC2)n1 (stereo not drawn) [Compound 115, 6-[1-[1-[2-[1-[4-[(2,6-dioxo-3-piperidyl)amino]-2-fluoro-phenyl]-4-hydroxy-4-piperidyl]acetyl]-4-piperidyl]pyrazol-4-yl]-4-[6-[4-(4-methylpyrimidin-2-yl)-1-piperidyl]-3-pyridyl]pyrazolo[1,5-a]pyrazine-3-carbonitrile]
